#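 Dose response: 5 concentrations. Exposure: 48 h. Format: 96-well plates. Endpoint: linear interpolation; highest concentration if not reached. TGI is the concentration that stops growth completely.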
# Assays:
# Assay in all cases: NCI-60 cell line screen, 48 h
# OVCAR-8 ovarian = test system: OVCAR-8 ovarian
# MCF7 breast = test system: MCF7 breast
# OVCAR-4 ovarian = test system: OVCAR-4 ovarian
# A498 renal = test system: A498 renal
# CAKI-1 renal = test system: CAKI-1 renal
# IGROV1 ovarian = test system: IGROV1 ovarian
# EKVX NSCLC = test system: EKVX NSCLC
# SF-295 CNS = test system: SF-295 CNS
# UO-31 renal = test system: UO-31 renal
# SK-MEL-2 melanoma = test system: SK-MEL-2 melanoma
# UACC-62 melanoma = test system: UACC-62 melanoma
# DU-145 prostate = test system: DU-145 prostate
# HCC-2998 colon = test system: HCC-2998 colon
# A549 NSCLC = test system: A549 NSCLC
# SF-268 CNS = test system: SF-268 CNS
# SR leukemia = test system: SR leukemia
# KM12 colon = test system: KM12 colon
# HCT-116 colon = test system: HCT-116 colon
# MALME-3M melanoma = test system: MALME-3M melanoma
# BT-549 breast = test system: BT-549 breast
# SW-620 colon = test system: SW-620 colon
# PC-3 prostate = test system: PC-3 prostate
# M14 melanoma = test system: M14 melanoma
# NCI-H23 lung = test system: NCI-H23 lung
# TK-10 renal = test system: TK-10 renal
# NCI-H460 lung = test system: NCI-H460 lung
# SK-MEL-28 melanoma = test system: SK-MEL-28 melanoma
# SK-OV-3 ovarian = test system: SK-OV-3 ovarian
# SK-MEL-5 melanoma = test system: SK-MEL-5 melanoma
# K-562 leukemia = test system: K-562 leukemia
# HT29 colon = test system: HT29 colon
# NCI-H226 lung = test system: NCI-H226 lung
# HCT-15 colon = test system: HCT-15 colon
# MDA-MB-231 breast = test system: MDA-MB-231 breast
# SF-539 CNS = test system: SF-539 CNS
# MOLT-4 leukemia = test system: MOLT-4 leukemia
# HOP-62 NSCLC = test system: HOP-62 NSCLC
# SNB-19 CNS = test system: SNB-19 CNS
# UACC-257 melanoma = test system: UACC-257 melanoma
# MDA-MB-435 = test system: MDA-MB-435
# 786-0 renal = test system: 786-0 renal
# COLO 205 colon = test system: COLO 205 colon
# LOX IMVI melanoma = test system: LOX IMVI melanoma
# RXF 393 renal = test system: RXF 393 renal
# OVCAR-5 ovarian = test system: OVCAR-5 ovarian
# OVCAR-3 ovarian = test system: OVCAR-3 ovarian
# SNB-75 CNS = test system: SNB-75 CNS
# RPMI-8226 leukemia = test system: RPMI-8226 leukemia
# ACHN renal = test system: ACHN renal
# NCI/ADR-RES ovarian = test system: NCI/ADR-RES ovarian
# U251 CNS = test system: U251 CNS
# T-47D breast = test system: T-47D breast
# HOP-92 NSCLC = test system: HOP-92 NSCLC
compound,measurement,setting,value
CC1(C)C2CCC1(C)[C@H](O)[C@H]2Nc1cc(C(F)(F)F)cc(C(F)(F)F)c1 (stereo not given in full),TGI,OVCAR-8 ovarian,9.26 µM
same,TGI,MCF7 breast,> 100 µM
same,TGI,OVCAR-4 ovarian,17.3 µM
same,TGI,A498 renal,> 100 µM
same,TGI,CAKI-1 renal,13.1 µM
same,TGI,IGROV1 ovarian,11.5 µM
same,TGI,EKVX NSCLC,12.5 µM
same,TGI,SF-295 CNS,7.27 µM
same,TGI,UO-31 renal,12.7 µM
same,TGI,SK-MEL-2 melanoma,5.45 µM
same,TGI,UACC-62 melanoma,> 100 µM
same,TGI,DU-145 prostate,12.1 µM
same,TGI,HCC-2998 colon,9.8 µM
same,TGI,A549 NSCLC,13.6 µM
same,TGI,SF-268 CNS,8.02 µM
same,TGI,SR leukemia,9.23 µM
same,TGI,KM12 colon,10.7 µM
same,TGI,HCT-116 colon,8.17 µM
same,TGI,MALME-3M melanoma,9.12 µM
same,TGI,BT-549 breast,8.31 µM
same,TGI,SW-620 colon,12 µM
same,TGI,PC-3 prostate,8.42 µM
same,TGI,M14 melanoma,15.6 µM
same,TGI,NCI-H23 lung,6.98 µM
same,TGI,TK-10 renal,9.89 µM
same,TGI,NCI-H460 lung,12 µM
same,TGI,SK-MEL-28 melanoma,7.14 µM
same,TGI,SK-OV-3 ovarian,13.8 µM
same,TGI,SK-MEL-5 melanoma,17.6 µM
same,TGI,K-562 leukemia,7.72 µM
same,TGI,HT29 colon,12.5 µM
same,TGI,NCI-H226 lung,19.4 µM
same,TGI,HCT-15 colon,12.6 µM
same,TGI,MDA-MB-231 breast,15.3 µM
same,TGI,SF-539 CNS,15.6 µM
same,TGI,MOLT-4 leukemia,5.91 µM
same,TGI,HOP-62 NSCLC,17.7 µM
same,TGI,SNB-19 CNS,16.2 µM
same,TGI,UACC-257 melanoma,12.9 µM
same,TGI,MDA-MB-435,11.6 µM
same,TGI,786-0 renal,12.2 µM
same,TGI,COLO 205 colon,3.28 µM
same,TGI,LOX IMVI melanoma,10.4 µM
same,TGI,RXF 393 renal,9.03 µM
same,TGI,OVCAR-5 ovarian,21.1 µM
same,TGI,OVCAR-3 ovarian,6.01 µM
same,TGI,SNB-75 CNS,3.56 µM
same,TGI,RPMI-8226 leukemia,7.11 µM
same,TGI,ACHN renal,> 100 µM
same,TGI,NCI/ADR-RES ovarian,7.13 µM
same,TGI,U251 CNS,14.2 µM
same,TGI,T-47D breast,6.99 µM
N#Cc1nnc2ccccc2c1N,TGI,OVCAR-8 ovarian,> 100 µM
same,TGI,MCF7 breast,> 100 µM
same,TGI,OVCAR-4 ovarian,> 100 µM
same,TGI,CAKI-1 renal,> 100 µM
same,TGI,IGROV1 ovarian,> 100 µM
same,TGI,EKVX NSCLC,> 100 µM
same,TGI,UO-31 renal,> 100 µM
same,TGI,SK-MEL-2 melanoma,> 100 µM
same,TGI,UACC-62 melanoma,> 100 µM
same,TGI,DU-145 prostate,> 100 µM
same,TGI,HOP-92 NSCLC,> 100 µM
same,TGI,HCC-2998 colon,> 100 µM
same,TGI,A549 NSCLC,> 100 µM
same,TGI,SF-268 CNS,> 100 µM
same,TGI,SR leukemia,> 100 µM
same,TGI,KM12 colon,> 100 µM
same,TGI,HCT-116 colon,> 100 µM
same,TGI,MALME-3M melanoma,> 100 µM
same,TGI,BT-549 breast,> 100 µM
same,TGI,SW-620 colon,> 100 µM
same,TGI,PC-3 prostate,> 100 µM
same,TGI,M14 melanoma,> 100 µM
same,TGI,NCI-H23 lung,> 100 µM
same,TGI,TK-10 renal,> 100 µM
same,TGI,NCI-H460 lung,> 100 µM
same,TGI,SK-MEL-28 melanoma,> 100 µM
same,TGI,SK-MEL-5 melanoma,> 100 µM
same,TGI,K-562 leukemia,> 100 µM
same,TGI,HT29 colon,> 100 µM
same,TGI,NCI-H226 lung,> 100 µM
same,TGI,HCT-15 colon,> 100 µM
same,TGI,MDA-MB-231 breast,> 100 µM
same,TGI,SF-539 CNS,> 100 µM
same,TGI,MOLT-4 leukemia,> 100 µM
same,TGI,HOP-62 NSCLC,> 100 µM
same,TGI,SNB-19 CNS,> 100 µM
same,TGI,UACC-257 melanoma,> 100 µM
same,TGI,MDA-MB-435,> 100 µM
same,TGI,786-0 renal,> 100 µM
same,TGI,COLO 205 colon,> 100 µM
same,TGI,LOX IMVI melanoma,> 100 µM
same,TGI,OVCAR-5 ovarian,> 100 µM
same,TGI,OVCAR-3 ovarian,26.4 µM
same,TGI,RPMI-8226 leukemia,> 100 µM
same,TGI,ACHN renal,> 100 µM
same,TGI,NCI/ADR-RES ovarian,> 100 µM
same,TGI,U251 CNS,> 100 µM
same,TGI,T-47D breast,> 100 µM

# Source: PubChem BioAssay (NCI)
